1 molecule from publication PMC3310374 (Bioconjugate Chemistry, 2012) can be followed below.

This test has as its system PC-3 cells. Kind of test: Flow cytometric analysis of hypoxic cell induction. Format: cell-based, human. Particulars: for Mean fluorescence (FITC antibody against pimonidazole adducts): 10 μM pimonidazole, 2 h.

SMILES strings stand for the structures.

On to `O=[N+]([O-])c1nccn1CC(O)CN1CCCCC1` (stereo not drawn) [pimonidazole], for which the “Increase in pimonidazole binding, hypoxic compared to normoxic” value (PC-3 cells, flow cytometry) is given as “fivefold increase”. The “Mean fluorescence (FITC antibody against pimonidazole adducts)” value is 286 (hypoxic PC-3 cells (94.9% N2, 0.1% O2, 5% CO2)) and 56.8 (normoxic PC-3 cells (95% air, 5% CO2)).
